Tests used:
ovariectomized rats = test: Ovariectomized rat osteoporosis model, femur bone mineral content by DEXA; assay type: in vivo, Harlan-Sprague-Dawley rats; details: Day 45, femur, OVX rats; compared with sham (positive) and OVX saline (negative) controls; doses and routes per b114 table
Method: Ovariectomized rats were chosen for the efficacy study of O-phosphoserine containing polypeptides. Ovaries were surgically resected from young female Harlan-Sprague-Dawley rats. Sham-operated rats were also prepared to use as positive controls.
After 7 days acclimation, the ovariectomized (OVX) rats were randomly divided into different treatment groups (6 animals per each group). Six sham-operated rats were assigned to the positive control group. Each group was fed a normal rat diet throughout the test period but received different treatments as summarized below: […]
The test samples four groups 3, 4, 5, and 6 were dissolved in saline and administered at once. Total volume of the sample solution was 1 ml and 0.1 ml per animal for oral and parenteral administration, respectively. Oral preparations were administered once a day and injection (s.c.) was every three days.
The group receiving the highest amount of oral Pse (group 3) was used to compare the efficacy of monomeric Pse versus Pse contained in a polypeptide.
On Days 0, 45, and 90 of the treatment, the femurs of most of the participating animals were subject to DEXA (dual energy X-ray absorptiometry) measurement, a typical method by which to study the status of bone growth. The animals were anesthetized and fixed on the bed when receiving the DEXA scan. […]

[1] = tested on: bone formation and resorption; test: In vitro or ex vivo bone formation and resorption assay systems; details: typical in vitro or ex vivo bone formation and resorption assay systems
Text: The mechanism of action of these polypeptides is not completely understood. […] These peptides may increase to bone formation by attracting calcium which is solubilized in the biological fluids (serum, bone marrow, and so on, etc.). In addition, these peptides may have an effect on the formation or cross-linking of bone matrix proteins, by forming hydroxyapatite on or between such matrix proteins.

## N[C@@H](COP(=O)(O)O)C(=O)O [Pse, O-phosphoserine]
Ovariectomized rats
  bone mineral content (BMC) measured by DEXA: close to that of the negative control
[1]
  biological effect on bone: neither the O-phosphoserine-containingpolypeptides nor O-phosphoserine monomer had any biological effect

Source: patent US6306822A, “Phosphopeptides and methods of treating bone diseases” (Big Bear Bio, Inc., priority 1998, dated 2001)
